Test results from US20250115597A1, “TYK2 INHIBITORS AND COMPOSITIONS AND METHODS THEREOF” (LYNK PHARMACEUTICALS CO. LTD., priority 2021, published 2025).
Read-outs that look alike come from different tables or passages of the source.

Experiments:
Ba/F3-TEL-JAK2 cells = target: T1, Ba/F3-TEL-JAK2 cells (Homo sapiens, UniProt O60674); assay: Anti-proliferative assay, Ba/F3-TEL-JAK2 cells (Cell-Titer Glo); format: cell-based; conditions: 72 h, read-out: BaF3-TEL-JAK2 IC50
T1 construct: fused on or other part: Dimerization domain of TEL (ETV6) fused to the JAK2 kinase domain; P41212 (Transcription factor ETV6)
T1 sequence (O60674 whole entry, change not shown, the tested form may be a part): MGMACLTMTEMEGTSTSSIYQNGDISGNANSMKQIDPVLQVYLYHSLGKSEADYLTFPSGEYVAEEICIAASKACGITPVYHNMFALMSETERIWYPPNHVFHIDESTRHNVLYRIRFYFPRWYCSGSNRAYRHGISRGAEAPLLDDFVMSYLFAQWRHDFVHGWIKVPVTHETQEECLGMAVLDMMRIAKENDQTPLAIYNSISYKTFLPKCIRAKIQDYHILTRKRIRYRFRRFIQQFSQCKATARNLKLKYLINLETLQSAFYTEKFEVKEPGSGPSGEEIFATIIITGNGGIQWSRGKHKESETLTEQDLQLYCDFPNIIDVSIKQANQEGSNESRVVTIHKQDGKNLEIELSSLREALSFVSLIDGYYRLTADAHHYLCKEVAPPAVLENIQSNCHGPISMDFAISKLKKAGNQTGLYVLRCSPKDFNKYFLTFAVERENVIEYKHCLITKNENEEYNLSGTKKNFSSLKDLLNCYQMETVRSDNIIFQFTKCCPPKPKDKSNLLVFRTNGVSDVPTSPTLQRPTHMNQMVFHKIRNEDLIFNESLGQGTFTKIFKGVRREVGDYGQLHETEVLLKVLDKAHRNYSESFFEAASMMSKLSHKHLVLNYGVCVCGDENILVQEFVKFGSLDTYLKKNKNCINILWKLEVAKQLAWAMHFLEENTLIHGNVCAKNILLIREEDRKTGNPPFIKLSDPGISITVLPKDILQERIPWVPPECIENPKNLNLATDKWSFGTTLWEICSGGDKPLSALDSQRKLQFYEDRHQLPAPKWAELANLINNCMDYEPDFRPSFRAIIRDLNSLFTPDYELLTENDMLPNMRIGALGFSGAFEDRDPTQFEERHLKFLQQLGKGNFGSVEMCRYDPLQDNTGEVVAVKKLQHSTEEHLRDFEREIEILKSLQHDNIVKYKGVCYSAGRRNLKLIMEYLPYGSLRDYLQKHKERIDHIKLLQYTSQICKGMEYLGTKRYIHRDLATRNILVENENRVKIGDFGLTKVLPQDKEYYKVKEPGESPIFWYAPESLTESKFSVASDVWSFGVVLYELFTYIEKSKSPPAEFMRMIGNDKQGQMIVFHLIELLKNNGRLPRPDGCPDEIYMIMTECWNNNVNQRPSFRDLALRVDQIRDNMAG
Protocol: (§1) Anti-Proliferative Assay Dimerization domain of Tel protein fused with JAK kinase domain was permanently transduced into Ba/F3 cells, whose proliferation is dependent on JAK activity in the absence of IL-3 induction. These engineered Ba/F3 cells (Ba/F3-FL-TYK2-[…], Ba/F3-TEL-TYK2 and Ba/F3-TEL-JAK2) were used to monitor JAK inhibitory activities of the compounds in the cellular. […] Cells were seeded at 2000/well of white flat bottom 96-well plates. The well containing medium only was used as background control. After 24 h growth, cells were treated with compounds. The test compounds were dissolved in DMSO to a stock concentration of 20 mM. 3-fold serially diluted compounds for 9 concentrations with top concentration of 20 μM was added into the each well. […] The cells continued to grow at 37° C. in 5% CO2 for 72 h after compound treatment. The viability was measured by cellular ATP determination using the Cell-Titer Glo luciferase reagent (Promega). The Luminescence value was recorded by a multi-label reader Envision (PerkinElmer).

Ba/F3-TEL-TYK2 cells = target: T2, Ba/F3-TEL-TYK2 cells (Homo sapiens, UniProt P29597); assay: Anti-proliferative assay, Ba/F3-TEL-TYK2 cells (Cell-Titer Glo); format: cell-based; conditions: 72 h, read-out: BaF3-TEL-TYK2 IC50
T2 construct: fused on or other part: Dimerization domain of TEL (ETV6) fused to the TYK2 kinase domain; P41212 (Transcription factor ETV6)
T2 sequence (P29597 whole entry, change not shown, the tested form may be a part): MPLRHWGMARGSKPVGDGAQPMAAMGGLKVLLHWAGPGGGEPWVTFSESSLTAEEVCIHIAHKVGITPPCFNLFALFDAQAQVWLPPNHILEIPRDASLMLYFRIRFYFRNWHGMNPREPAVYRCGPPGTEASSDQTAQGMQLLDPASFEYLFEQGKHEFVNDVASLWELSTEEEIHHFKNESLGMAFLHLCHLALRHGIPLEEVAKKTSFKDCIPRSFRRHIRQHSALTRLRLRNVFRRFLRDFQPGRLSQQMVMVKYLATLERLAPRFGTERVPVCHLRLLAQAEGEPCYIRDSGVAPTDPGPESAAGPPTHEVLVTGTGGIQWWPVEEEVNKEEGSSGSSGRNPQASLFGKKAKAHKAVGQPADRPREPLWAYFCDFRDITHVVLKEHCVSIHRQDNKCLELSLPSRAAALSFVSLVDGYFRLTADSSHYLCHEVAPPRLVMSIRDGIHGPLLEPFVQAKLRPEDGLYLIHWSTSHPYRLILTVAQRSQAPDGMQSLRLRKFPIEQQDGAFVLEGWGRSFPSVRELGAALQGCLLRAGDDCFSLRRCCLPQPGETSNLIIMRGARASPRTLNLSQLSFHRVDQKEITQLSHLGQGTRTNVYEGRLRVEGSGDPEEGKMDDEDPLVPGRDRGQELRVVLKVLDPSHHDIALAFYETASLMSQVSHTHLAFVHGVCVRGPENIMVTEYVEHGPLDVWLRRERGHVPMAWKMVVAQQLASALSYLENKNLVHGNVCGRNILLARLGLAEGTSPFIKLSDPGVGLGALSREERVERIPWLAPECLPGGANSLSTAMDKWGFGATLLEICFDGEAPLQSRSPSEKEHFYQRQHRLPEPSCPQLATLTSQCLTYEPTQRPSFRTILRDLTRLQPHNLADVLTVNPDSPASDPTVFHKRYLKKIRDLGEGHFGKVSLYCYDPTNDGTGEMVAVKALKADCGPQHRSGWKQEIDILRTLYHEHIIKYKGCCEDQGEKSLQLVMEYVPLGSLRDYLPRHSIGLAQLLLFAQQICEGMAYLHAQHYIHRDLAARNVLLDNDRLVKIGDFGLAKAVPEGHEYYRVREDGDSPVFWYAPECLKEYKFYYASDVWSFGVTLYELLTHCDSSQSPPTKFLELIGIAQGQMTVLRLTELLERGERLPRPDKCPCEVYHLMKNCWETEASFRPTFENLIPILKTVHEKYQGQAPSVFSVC
Protocol: as §1

JAK1 = target: T3, JAK1 (Homo sapiens, UniProt P23458); assay: JAK1 kinase activity, microfluidic assay (Caliper EZ Reader II); format: biochemical; conditions: JAK1 5 nM, 1 mM ATP
T3 construct: purchased Carna Biosciences
T3 sequence (P23458 whole entry): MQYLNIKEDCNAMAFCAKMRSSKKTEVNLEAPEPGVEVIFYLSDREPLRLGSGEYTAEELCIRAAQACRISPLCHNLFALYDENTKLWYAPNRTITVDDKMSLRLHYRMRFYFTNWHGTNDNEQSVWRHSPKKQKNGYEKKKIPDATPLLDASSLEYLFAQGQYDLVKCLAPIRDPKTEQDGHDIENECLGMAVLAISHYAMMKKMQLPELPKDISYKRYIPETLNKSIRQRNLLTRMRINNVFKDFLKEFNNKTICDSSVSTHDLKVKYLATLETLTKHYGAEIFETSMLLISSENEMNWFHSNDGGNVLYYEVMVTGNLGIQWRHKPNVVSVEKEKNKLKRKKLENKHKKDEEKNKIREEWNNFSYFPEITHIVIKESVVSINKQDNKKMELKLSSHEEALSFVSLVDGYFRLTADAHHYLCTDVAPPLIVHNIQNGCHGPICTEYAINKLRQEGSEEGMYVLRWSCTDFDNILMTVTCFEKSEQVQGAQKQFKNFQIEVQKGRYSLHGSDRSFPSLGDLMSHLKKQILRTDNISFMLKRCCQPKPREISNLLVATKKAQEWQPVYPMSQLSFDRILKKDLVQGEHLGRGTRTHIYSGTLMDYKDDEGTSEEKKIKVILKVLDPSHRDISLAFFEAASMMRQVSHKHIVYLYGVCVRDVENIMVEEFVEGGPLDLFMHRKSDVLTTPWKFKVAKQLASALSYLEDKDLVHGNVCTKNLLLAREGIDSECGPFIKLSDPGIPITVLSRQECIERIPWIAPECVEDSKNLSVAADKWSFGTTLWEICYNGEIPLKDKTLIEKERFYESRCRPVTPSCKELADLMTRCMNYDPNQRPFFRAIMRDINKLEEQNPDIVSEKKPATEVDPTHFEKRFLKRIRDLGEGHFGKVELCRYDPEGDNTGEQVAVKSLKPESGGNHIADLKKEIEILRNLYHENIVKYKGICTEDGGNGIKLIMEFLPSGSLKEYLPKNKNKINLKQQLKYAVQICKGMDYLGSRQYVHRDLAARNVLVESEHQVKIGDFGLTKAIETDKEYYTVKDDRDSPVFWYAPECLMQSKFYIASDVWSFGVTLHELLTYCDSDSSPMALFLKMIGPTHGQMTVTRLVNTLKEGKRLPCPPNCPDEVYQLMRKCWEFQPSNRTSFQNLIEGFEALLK
Protocol: (§2) Testing for JAK1, JAK2 and TYK2 Kinase Activities
(§3) JAK activity was determined in the reaction buffer 50 mM HEPES, 0.01% Brij35, 10 mM MgCl2, 2 mM DTT by a microfluidic assay. The phosphorylation of a FAM labeled peptide substrate was monitored in the Caliper EZ Reader II (Perkin Elmer). The assay condition for each batch of enzyme (Carna Biosciences) was optimized to obtain 10% conversion rate of peptide substrate.
(§4) The test compounds were dissolved in DMSO to a stock concentration of 10 mM. Three-fold serially diluted compounds with top concentration of 5 μM were pre-incubated with JAK1, JAK2 or TYK2 for 10 min at ambient temperature. The final DMSO concentration of assay mixture was 1%. […] The reaction was stopped by adding 50 mM EDTA.
(§5) The percent inhibition was calculated by the following formula:
(§6) [formula] • wherein • Conversion %_max=the conversion rate in the positive well without addition of compound • Conversion %_sample=the conversion rate of test compounds • Conversion %_min=the conversion rate in the well without addition of enzyme
(§7) The dose-response (percent inhibition) curve was plotted and IC50 values were determined by GraphPad software.

[1] = target: T4, Ba/F3-FL-TYK2-P760L cells (Homo sapiens, UniProt P29597, P760L, cells depend on it); assay: Anti-proliferative assay, Ba/F3-FL-TYK2-P760L cells (Cell-Titer Glo); format: cell-based; conditions: 72 h, read-out: BaF3-FL-T2P760L IC50
T4 construct: BaF3-FL-T2P760L (nM)
T4 sequence (P29597 whole entry P760L): as the sequence (P29597 whole entry, change not shown, the tested form may be a part) above, with P760L counted along it
Summary of the method: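 Ba/F3 cells made IL-3-independent by TEL-fused or full-length mutant JAK-family kinases, seeded at 2000/well and dosed after 24 h with 9 three-fold dilutions topping at 20 μM. Viability after 72 h at 37 °C, 5% CO2 by Cell-Titer Glo ATP luminescence.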

[2] = Microsomal metabolic stability assay; format: in vitro ADME; conditions: pH 7.4, 0.5 mg/mL protein, 1 μM compound
Summary of the method: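 Test article at 1 μM with 0.5 mg/mL microsomal protein and 2 mM NADPH, in 100 mM potassium phosphate pH 7.4 with 1.0 mM EDTA at 37 °C. Sampled at 0–45 min and quantified by LC/MS/MS. T1/2 from the slope of ln % remaining vs time.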

JAK2 = target: T5, JAK2 (Homo sapiens, UniProt O60674); assay: JAK2 kinase activity, microfluidic assay (Caliper EZ Reader II); format: biochemical; conditions: JAK2 0.125 nM, 1 mM ATP
T5 construct: purchased Carna Biosciences
T5 sequence (O60674 whole entry): as the sequence (O60674 whole entry, change not shown, the tested form may be a part) above
Protocol: as §2, §3, §4, §5, §6, §7

TYK2 = target: T6, TYK2 (Homo sapiens, UniProt P29597); assay: TYK2 kinase activity, microfluidic assay (Caliper EZ Reader II); format: biochemical; conditions: TYK2 1 nM, 1 mM ATP
T6 construct: purchased Carna Biosciences
T6 sequence (P29597 whole entry): as the sequence (P29597 whole entry, change not shown, the tested form may be a part) above
Summary of the method: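 Human JAK1, JAK2 or TYK2 enzyme was used in 50 mM HEPES, 10 mM MgCl2, 2 mM DTT and 0.01% Brij35, tuned to 10% conversion of a FAM-labelled peptide. Threefold dilutions of compound (top 5 µM, 1% DMSO) were pre-incubated with enzyme for 10 min, and reactions were stopped with EDTA. Phosphorylation was read by microfluidic mobility shift, and IC50 came from percent-inhibition curves.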

[3] = Plasma protein binding by equilibrium dialysis; format: in vitro ADME; conditions: human plasma, equilibrium dialysis 5 hours at 37° C.; read-out: % Bound (human) (converted)
Summary of the method: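 Compound spiked into plasma at 0.2 and 2 μM was dialyzed against PBS for 5 h at 37° C with shaking, in duplicate. Plasma and buffer chambers were matrix-matched, protein-precipitated and analysed by LC-MS/MS to derive % unbound, % bound and % recovery.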

TYK2-JH2 domain = target: T7, TYK2-JH2 domain (Homo sapiens, UniProt P29597); assay: Binding activity test for JH2 domain of TYK2 (Tb-antibody/tracer FRET)
T7 construct: IC50 on JH2 domain activity (nM)
T7 sequence (P29597 589-875 limits assumed): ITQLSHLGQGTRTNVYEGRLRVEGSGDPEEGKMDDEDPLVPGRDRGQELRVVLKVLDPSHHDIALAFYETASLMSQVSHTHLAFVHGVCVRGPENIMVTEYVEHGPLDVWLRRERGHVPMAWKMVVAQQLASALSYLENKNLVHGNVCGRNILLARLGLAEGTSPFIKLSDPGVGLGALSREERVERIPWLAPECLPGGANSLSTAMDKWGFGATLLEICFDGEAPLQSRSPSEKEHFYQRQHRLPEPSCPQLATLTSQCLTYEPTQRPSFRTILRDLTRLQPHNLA
Summary of the method: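 Compounds tested as 11-point 3-fold serial dilutions against the JH2 domain in a Tb-antibody/tracer FRET binding format. Plates incubated 60 min at 25° C, then overnight at 4° C, before FRET reading.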

[4] = dog liver microsomes, read-out: Dog LM Clint
[5] = dog liver microsomes, read-out: Dog LM T½
[6] = human liver microsomes, read-out: Human LM Clint
[7] = human liver microsomes, read-out: Human LM T½
[8] = rat liver microsomes, read-out: Rat LM Clint
[9] = rat liver microsomes, read-out: Rat LM T½

SMILES	GI50 (Ba/F3-TEL-JAK2 cells) [µM]	GI50 (Ba/F3-TEL-TYK2 cells) [µM]	IC50 (JAK1) [µM]	GI50 [1] [µM]	microsomal CLint at 1 μM [2, 4] [µL/min/mg]	half-life at 1 μM [2, 5] [h]	microsomal CLint at 1 μM [2, 6] [µL/min/mg]	half-life at 1 μM [2, 7] [h]	microsomal CLint at 1 μM [2, 8] [µL/min/mg]	half-life at 1 μM [2, 9] [h]	IC50 (JAK2) [µM]	IC50 (TYK2) [µM]	fraction unbound at 5 h [3]	IC50 (TYK2-JH2 domain) [nM]
CNC(=O)c1cnc(NC(=O)C2CC2)cc1Nc1cn(C)c2c(F)cn(C)c(=O)c12 [Example 14, 6-(Cyclopropanecarboxamido)-4-((7-fluoro-1,5-dimethyl-4-oxo-4,5-dihydro-1H-pyrrolo[3,2-c]pyridin-3-yl)amino)-N-methylnicotinamide]	> 20	> 20	> 5	0.33	6.43	3.59	23.6	0.98	101	0.228	> 5	> 5		
CCn1ccc2scc(Nc3cc(Nc4ccc(F)cn4)ncc3C(=O)NC)c2c1=O [Example 18, 4-((5-Ethyl-4-oxo-4,5-dihydrothieno[3,2-c]pyridin-3-yl)amino)-6-((5-fluoropyridin-2-yl)amino)-N-methylnicotinamide]	> 20	> 20	> 5	0.0484							> 5	> 5		
[2H]C([2H])([2H])NC(=O)c1cnc(Nc2ccc(C#N)cc2)nc1Nc1cccc(-c2ncn(C)n2)c1OC [Example 28, 2-((4-Cyanophenyl)amino)-4-((2-methoxy-3-(1-methyl-1H-1,2,4-triazol-3-yl)phenyl)amino)-N-(methyl-d3) pyrimidine-5-carboxamide]	> 20	> 20		0.065	4.77	4.84	2.46	9.39	14.3	1.61				

Stronger by GI50 (Ba/F3-TEL-JAK2 cells), values ahead:

GI50 (Ba/F3-TEL-JAK2 cells) [µM]	GI50 (Ba/F3-TEL-TYK2 cells) [µM]	IC50 (JAK1) [µM]	GI50 [1] [µM]	microsomal CLint at 1 μM [2, 4] [µL/min/mg]	half-life at 1 μM [2, 5] [h]	microsomal CLint at 1 μM [2, 6] [µL/min/mg]	half-life at 1 μM [2, 7] [h]	microsomal CLint at 1 μM [2, 8] [µL/min/mg]	half-life at 1 μM [2, 9] [h]	IC50 (JAK2) [µM]	IC50 (TYK2) [µM]	fraction unbound at 5 h [3]	IC50 (TYK2-JH2 domain) [nM]	SMILES
3.73	4.03	> 5	0.0545	27.1	2.13	88.3	0.654	137	0.422	> 5	> 5			CCn1ccc2c(c(Nc3cc(Nc4ccc(F)cn4)ncc3C(=O)NC)cn2C)c1=O [Example 10, 4-((5-Ethyl-1-methyl-4-oxo-4,5-dihydro-1H-pyrrolo[3,2-c]pyridin-3-yl)amino)-6-((5-fluoropyridin-2-yl)amino)-N-methylnicotinamide]
4.96	> 20	> 5	0.0349	71.2	0.812	4.46	12.9	43.6	1.32	> 5	> 5	0.038	0.098	[2H]C([2H])([2H])NC(=O)c1cnc(Nc2cccc(C#N)c2)nc1Nc1cccc(-c2ncn(C)n2)c1OC [Example 19, 2-(3-Cyanoanilino)-4-[2-methoxy-3-(1-methyl-1,2,4-triazol-3-yl)anilino]-N-(trideuteriomethyl)pyrimidine-5-carboxamide]
1.18	2.53	> 5	0.078	101	0.572	13.3	4.36	45.7	1.26	0.173	> 5			[2H]C([2H])([2H])NC(=O)c1cnc(Nc2ccc(F)cc2)nc1Nc1cccc(-c2ncn(C)n2)c1OC [Example 20, 2-(4-Fluoroanilino)-4-[2-methoxy-3-(1-methyl-1,2,4-triazol-3-yl)anilino]-N-(trideuteriomethyl)pyrimidine-5-carboxamide]
0.789	> 20	> 5	0.0482	< 18.6	> 3.1	21.2	2.72	63.8	0.905	> 5	> 5			CNC(=O)c1nnc2cc1Nc1cc(cc(-c3ncn(C)n3)c1OC)COCc1cccc(n1)N2 [Example 35, 10-Methoxy-N-methyl-11-(1-methyl-1H-1,2,4-triazol-3-yl)-15-oxa-2,4,5,8,21-pentaazatetracyclo[15.3.1.1^{3,7}.1^{9,13}]tricosa-1(21),3,5,7(23),9(22),10,12,17,19-nonaene-6-carboxamide]
0.892	1.96		0.173											CNC(=O)c1cnc2nc1Nc1cc(cc(-c3ncn(C)n3)c1OC)COCc1cc(ccc1F)N2 [Example 36, 18-Fluoro-10-methoxy-N-methyl-11-(1-methyl-1H-1,2,4-triazol-3-yl)-15-oxa-2,4,8,23-tetraazatetracyclo[15.3.1.1^{3,7}.1^{9,13}]tricosa-1(20),3,5,7(23),9(22),10,12,17(21),18-nonaene-6-carboxamide]
